Assay results: patent US8957012B2, “Gamma secretase inhibitor for treatment of herpesvirus infection” (The Trustees of the University of Pennsylvania, priority 2006, dated 2015)
Entries after “also recorded” stand apart in the source; their conditions may differ.

Columns and labels:
[1] = test system: KSHV-GFP Bac36 recombinant virus in Vero cells; format: cell-based
[2] = test system: KSHV in BCBL1 cells; format: cell-based
[3] = test system: DG75 cells; experiment: Cell cycle distribution, propidium iodide FACS; format: cell-based; settings: 48 h post treatment
Procedure: (§1) At 48 h post treatment, cells were harvested, fixed, and stained with propidium iodide. M2, M3, and M4 represent the G1, S, and G2/M populations of cells, respectively. M1 and M5 represent hypo- and hypernucleated cells, respectively. The percentage of cells in each different phase is indicated. Western blot analysis indicates the ICN levels in γ-secretase inhibitor-treated DG75 cells or BCBL1 cells. The relative density (RD) of ICN in each sample is also shown.
(§2) As was shown in the above Examples; a γ-secretase inhibitor can dramatically slow down proliferation of the KSHV-positive BCBL1 cell line.

[4] = test system: BCBL1 cells; experiment: Cell cycle distribution, propidium iodide FACS; format: cell-based; settings: 48 h post treatment
Procedure: as §1, §2

[5] = test system: BCBL1 cells; experiment: SCID mouse model of KSHV infected B lymphoma; settings: listed as GSI
[6] = test system: cyclin D1 in KSHV-positive cells; experiment: Western blot of cyclin D1 levels; settings: KSHV-positive cells treated with inhibitor
[7] = test system: DG75 cells; experiment: CFSE staining of mitotic activity by FACS; format: cell-based; settings: 20 μM, 48 h, treated vs untreated
Procedure: (§3) Each cell type (100,000 cells) was cultured in RPMI 1640 with 5% BGS. At each time point, cells were stained with trypan blue and counted. The results represent three independent experiments. (B) CFSE staining showing mitosis of DG75 (left panel) and BCBL1 (right panel) cells. Five million cells were cultured in RPMI 1640 with 5% BGS and mock treated (red curves) or treated with γ-secretase inhibitor at 20 μM (blue curves). At 48 h post treatment, cells were harvested for FACS analysis to determine mitotic activity. Gray and black curves represent negative and positive controls, respectively. The negative control was non-CFSE-staining cells, and the positive control was CFSE-staining but immediately fixed cells. (C) 7AAD staining analysis of mock treated (left panel) and KSHV-infected (right panel) primary B cells. Two million primary B cells were mock treated or KSHV infected for 4 weeks and harvested for 7AAD staining. The percentages of dead and necrotic cells are shown. (D) Four-week KSHV-infected primary B cells were harvested and mock treated (left panel) or treated with γ-secretase inhibitor (right panel) for 5 days, and then cells were stained with 7AAD for FACS analysis.
(§4) As was mentioned previously, aberrant Notch signaling is highly associated with oncogenesis. […] Cells stained with CFSE followed by treatment with the γ-secretase inhibitor for 48 h were monitored by FACS.

[8] = test system: BCBL1 cells; experiment: CFSE staining of mitotic activity by FACS; format: cell-based; settings: 20 μM, 48 h, vs untreated cells
Procedure: as §3, §4

[9] = test system: KSHV-infected primary B cells; experiment: 7AAD staining FACS analysis of cell death; format: cell-based; settings: 4-week KSHV Bac36-infected primary B cells; treated 5 days; mock-treated 21.2%
[10] = test system: DG75 cells; experiment: Cell proliferation, trypan blue counting; format: cell-based; settings: KSHV-negative cells; RPMI 1640 with 5% BGS; trypan blue counts
Procedure: as §3, §4

[11] = test system: BCBL1 cells; experiment: Cell proliferation, trypan blue counting; format: cell-based; settings: KSHV-positive cells; RPMI 1640 with 5% BGS; trypan blue counts
Procedure: as §3, §4

[12] = test system: Notch1 ICN in BCBL1 cells; experiment: Western blot of ICN levels; format: cell-based; settings: BCBL1 cells treated with inhibitor
Procedure: as §1, §2

Row | SMILES | GFP signals in cells infected with supernatant (FACS) [1] | RTA expression (Western blot) [2] | production of infectious virions in supernatant [2] | changes in G1 phase of the cell cycle [3] | more cells arrested at G1 phase than mock-treated [4] | survival time of mice ([5]; SCID mice with BCBL1, 30 mg/kg daily, vs saline control) | progression of the tumor / formation of tumor and ascites ([5]; SCID mice, 10 million BCBL1 cells i.p., 30 mg/kg i.p. daily, vs saline, 30 mg/kg) | histopathology of BCBL1 tumor cells ([5]; tumor tissue of treated mice, vs saline mock treated) | cyclin D1 levels (Western blot) [6] | mitotic activity (CFSE) [7] | mitotic activity (CFSE) [8] | cells that had undergone death (7AAD positive) [9] | proliferation of DG75 cells [10] | proliferation of BCBL1 cells [11] | ICN levels (Western blot) [12]
1 | CCCCCCCCCCCCCC(=O)O[C@@H]1[C@@H](C)[C@@]2(O)[C@@H](C=C(CO)C[C@]3(O)C(=O)C(C)=C[C@@H]23)[C@@H]2C(C)(C)[C@]12OC(C)=O [TPA, tetradecanoyl phorbol acetate] | GFP signals were detected | strongly expressed | infectious virions were produced |  |  |  |  |  |  |  |  |  |  |  | 
2 | C[C@H](NC(=O)Cc1cc(F)cc(F)c1)C(=O)N[C@H](C(=O)OC(C)(C)C)c1ccccc1 [γ-secretase inhibitor, N—[N-(3,5-difluorophenacetyl-L-alanyl)]-S-phenylglycine t-butyl ester] |  |  |  | no significant changes | approximately 30% | significantly prolong; also recorded: significantly increase | greatly slow down; also recorded: greatly delayed | necrosis and apoptosis; also recorded: a lot of necrotic and apoptotic cells | depressed | relatively unchanged | dramatically decreased | about 45.4% | minimally affected | dramatically slowed | decreased
